In publication PMC7532663, “Pharmacological inhibition of mTORC1 increases CCKBR-specific tumor uptake of radiolabeled minigastrin analogue [^177Lu]Lu-PP-F11N” (Theranostics, 2020):
Where “and” joins values, the source holds several entries; their conditions need not be identical. Identical values can stand only once.

What was measured:
in vivo = conditions: female, CD-1 nude, mouse, iv, 3 pmol, total radioactivity, Uptake [% i.A./g], PBS group, control PBS-treated mice, 3 pmol i.v., 4 h post injection, mean
[1] = clinical study; cited from earlier work
Text: Overexpression of G-protein coupled receptors (GPCRs) that selectively bind their peptide ligands allowed the development of the peptide receptor radionuclide therapy (PRRT) for human cancers. One of the most important properties of PRRT is a high uptake ratio of tumor-to-healthy-tissue in terms of radiolabeled ligands. Consequently, the molecular strategies which increase uptake of radiopharmaceuticals selectively in cancer tissue while sparing healthy organs from cytotoxic side effects have huge potential to improve PRRT efficacy. Activated GPCRs by agonistic ligand-based radiotherapeuti ...

A431/CCKBR cells [2] = experiment: Kinase inhibitor library screen: [177Lu]Lu-PP-F11N cell uptake; type: cell-based, human; conditions: ratio treatment/control; 10 μM inhibitor
A431/CCKBR cells [3] = experiment: CellTiter 96 AQueous (MTS) proliferation assay; type: cell-based, human; conditions: for Proliferation [A570]: 10 μM kinase inhibitor, MTS absorbance at 570 nm, reference 650 nm, mean of triplicate; for Proliferation (ratio): ratio treatment/control, 10 μM inhibitor
A431/CCKBR cells [4] = experiment: Total protein concentration of cell lysates; type: cell-based, human; conditions: for total protein level compared to control: 100 nM RAD001 or 10 mM metformin, 20 h
Text: (§1) […]. […] […].

[5] = system: A431/CCKBR-tumor bearing nude mice; experiment: Tumor volume, mouse weight and toxicity during treatment; type: in vivo
CCKBR = experiment: WB analysis of CCKBR protein level in deglycosylated lysates; type: cell-based, human; conditions: 50 or 100 nM RAD001, 20 h; A431/CCKBR; CCKBR/GAPDH
Protocol: (§2) Antibodies against phospho-S6 at S235/S236 (D57.2.2F), ERK1/2 (9102), phospho-ERK1/2 (T202/Y204), GAPDH (14C10) and HA-Tag (C29F4) were obtained from Cell Signaling Technology, whereas the anti-CCKBR (ab77077) was from Abcam. Cells were homogenized in lysis buffer (50 mM Tris-HCl pH 7.5, 150 mM NaCl, 1% Triton X, 0.1% SDS supplemented with 1 mM sodium orthovanadate, 1 mM NaF and protease inhibitor cocktail (Roche)). 50 μg of total protein lysates were separated by SDS-PAGE and transferred to PVDF membranes (Millipore) by electroblotting. Membranes were blocked with 5% skim milk in TBST (0.1% Tween 20) for 1 h, and incubated with 2% BSA in TBST overnight with the primary antibody followed by 2 h incubation with HRP-conjugated secondary antibody. Signals were produced by using a chemiluminescence reagent (ECL) and acquired by ImageQuant RT ECL Imager (GE Healthcare). Prior to CCKBR detection by WB, protein lysates were subjected to deglycosylation. Briefly, 18 μL of total protein lysates (50 µg) were mixed with 2 μL of 10× denaturing buffer (5% SDS, 0.4 M DTT) and incubated for 10 min at RT. Next, 4 μL of 10× Glycobuffer (0.5 M sodium phosphate, pH 7.5), 4 μL of 10% Tween-20 and 10 μL of water were added. Finally, 2 μL of PNGase F (Sigma) was added and the reaction was carried out for 16 h at 37°C.

A431/CCKBR cells [6] = conditions: 100 nM RAD001 or 10 mM metformin; for internalization ratio [treatment/control]: 20 h; for [177Lu]Lu-PP-F11N internalization in treated cells: 20 h treatment, 0.3 pmol radioligand 1 h, triplicate
Protocol: Radioactive medium (and PBS wash) was collected and the cells were washed 2× with glycine buffer (pH=2) for 5 min at RT followed by a dissolving step in 1 M NaOH for 15 min at 37°C. All 3 fractions (medium/PBS; glycine; dissolved cells) were measured on Cobra II Auto-Gamma counter (Packard). For the cell uptake analysis, the PBS-washed cells were directly dissolved in 1M NaOH, or combined glycine-wash and 1M NaOH dissolved cells, were measured on the Gamma counter. […] Protein concentration of cell lysates was measured by using NanoPhotometer® UV-Vis P-Class (Implen).

AR42J cells [7] = experiment: Total protein concentration of cell lysates; type: cell-based, rat; conditions: 100 nM RAD001
Text: as §1

A431/CCKBR cells [8] = experiment: Hoechst fluorescence cell number control; type: cell-based, human; conditions: RAD001 pretreatment 20 h
A431/CCKBR tumors = experiment: HE staining and immunohistochemistry of tumor sections; type: in vivo, mouse; conditions: for mitotic index / necrosis (necrotic area) / Ki67 positive cells: 5 days treatment, mean ± SD; for tumor vascularization: HE and CD34, five-day treatment; for necrosis (necrotic area): HE stain; for Ki67 positive cells: IHC
Protocol: Formalin-fixed, paraffin tumor sections were deparaffinized, rehydrated and pretreated in 10 mM citrate buffer, pH 6.0, at 98 °C for 60 minutes, followed by incubation with 4% fat-free milk in PBS for 90 minutes. For avidin/biotin blocker treatment (Invitrogen) and detection, the ABC method was used. For monoclonal antibody against Ki67 (SP6, Thermo Scientific) and CD34 (cloneQBend/10; Dako) signals were recorded using an automated instrument reagent system (Discovery XT, Ventana Medical System Inc.). Images of hematoxylin-counterstained sections were captured (Nikon, YTHM) and analyzed using ImageAccess Enterprise7 and ImageJ software. Tumor necrotic areas and vascularization were analyzed in 10 (RAD001 and PBS) and 8 (metformin) images, whereas Ki67 and mitotic index in 15 (RAD001 and PBS) and 12 (metformin) images.

[9] = system: β-arrestin-2 recruitment to CCKBR; experiment: Split luciferase arrestin recruitment assay; type: cell-based, human; conditions: RAD001 20 h, then 1 µM PP-F11N
[10] = system: β-arrestin-1 recruitment to CCKBR; experiment: Split luciferase arrestin recruitment assay; type: cell-based, human; conditions: RAD001 20 h, then 1 µM PP-F11N
[11] = system: mTORC1-regulated phosphorylation of the ribosomal protein S6 at Ser235/236; experiment: WB analysis of phospho-S6; type: cell-based, human; conditions: for phosphorylation of S6 at Ser235/236 (WB): A431/CCKBR cells, 100 nM RAD001 or 10 mM metformin
Protocol: as §2

AR42J cells [12] = type: cell-based, rat
Text: as §1

[13] = system: A431/CCKBR-tumor bearing nude mice; conditions: for influence on [177Lu]Lu-PP-F11N tumor uptake: three doses of metformin or one RAD001 dose
A431 cells = experiment: Total protein concentration of cell lysates; type: cell-based, human; conditions: 100 nM RAD001
Text: as §1

SMILES | Uptake (ratio) (A431/CCKBR cells [2]) | Proliferation [A570] (A431/CCKBR cells [3]) | Proliferation (ratio) (A431/CCKBR cells [3]) | mouse weight ([5]; 3 daily doses) | tumor volume ([5]; 3 daily doses) | mouse weight ([5]; 5 days daily treatment) | tumor volume ([5]; 5 days daily treatment) | internalization ratio [treatment/control] (A431/CCKBR cells [6]) | [177Lu]Lu-PP-F11N internalization in treated cells (A431/CCKBR cells [6]) [%] | mitotic index (A431/CCKBR tumors) | tumor vascularization (A431/CCKBR tumors) | necrosis (necrotic area) (A431/CCKBR tumors) | Ki67 positive cells (A431/CCKBR tumors) | phosphorylation of S6 at Ser235/236 (WB) [11] | influence on [177Lu]Lu-PP-F11N tumor uptake [13] | total protein level compared to control (A431/CCKBR cells [4]) [%] | further results
CCCC[C@H](NC(=O)[C@H](Cc1c[nH]c2ccccc12)NC(=O)CNC(=O)[C@H](Cc1ccc(O)cc1)NC(=O)[C@H](C)NC(=O)[C@@H](CCC(=O)O)NC(=O)[C@@H](CCC(=O)O)NC(=O)[C@@H](CCC(=O)O)NC(=O)[C@@H](CCC(=O)O)NC(=O)[C@@H](CCC(=O)O)NC(=O)[C@@H](CCC(=O)O)NC(=O)CN1CCN(CC(=O)O)CCN(CC(=O)O)CCN(CC(=O)O)CC1)C(=O)N[C@@H](CC(=O)O)C(=O)N[C@@H](Cc1ccccc1)C(N)=O [[^177Lu]Lu-PP-F11N, [^177Lu]Lu-DOTA-(DGlu)6-Ala-Tyr-Gly-Trp-Nle-Asp-Phe-NH2, metal not drawn] |  |  |  |  |  |  |  |  |  |  |  |  |  |  |  |  | tissue uptake at 4 h (in vivo; Blood): 0.043 %ID/g; tissue uptake at 4 h (in vivo; Bone): 0.37 %ID/g; tissue uptake at 4 h (in vivo; Brain): 0.03 %ID/g; tissue uptake at 4 h (in vivo; Intestines): 0.23 %ID/g; tissue uptake at 4 h (in vivo; Kidney): 3.07 %ID/g; tissue uptake at 4 h (in vivo; Liver): 0.17 %ID/g; tissue uptake at 4 h (in vivo; Lung): 0.08 %ID/g; tissue uptake at 4 h (in vivo; Pancreas): 0.12 %ID/g; tissue uptake at 4 h (in vivo; Spleen): 0.1 %ID/g; tissue uptake at 4 h (in vivo; Stomach): 1.01 %ID/g; tissue uptake at 4 h (in vivo; Tumor, n=6): 10.9 %ID/g; median tumor-to-kidney dose ratio [1]: 11.6; tumor-to-stomach dose ratio [1]: 3.34
CO[C@H]1C[C@@H]2CC[C@@H](C)[C@@](O)(O2)C(=O)C(=O)N2CCCC[C@H]2C(=O)O[C@H]([C@H](C)C[C@@H]2CC[C@@H](O)[C@H](OC)C2)CC(=O)[C@H](C)/C=C(\C)[C@@H](O)[C@@H](OC)C(=O)[C@H](C)C[C@H](C)/C=C/C=C/C=C/1C [Rapamycin] | 1.24 | 0.91 | 0.94 |  |  |  |  |  |  |  |  |  |  |  |  |  | decrease of total protein level (A431/CCKBR cells [4]; 10 µM, lysates of validation experiment): 26%
CO[C@H]1C[C@@H]2CC[C@@H](C)[C@@](O)(O2)C(=O)C(=O)N2CCCC[C@H]2C(=O)O[C@H]([C@H](C)C[C@@H]2CC[C@@H](OCCO)[C@H](OC)C2)CC(=O)[C@H](C)/C=C(\C)[C@@H](O)[C@@H](OC)C(=O)[C@H](C)C[C@H](C)/C=C/C=C/C=C/1C [RAD001, Everolimus] |  |  |  | without influencing overall mouse weight | significantly reduced tumor volumes | without influencing overall mouse weight | significantly reduced tumor volumes | 1.5 | 24.3 | 0.75% and 0.75 ± 0.36% | No significant difference | 10.6 ± 6.4% | 61% and 61 ± 8.6% | lack of mTORC1-regulated phosphorylation | only moderately and did not reach statistical significance | 79 | increase of CCKBR level (CCKBR): 2.2 fold; total protein level compared to control (AR42J cells [7]): 84%; cell number by Hoechst fluorescence (A431/CCKBR cells [8]): significantly reduced cell number; effect of RAD001 on β-arrestin-2 recruitment [9]: no difference; effect of RAD001 on β-arrestin-1 recruitment [10]: no difference; S6 phosphorylation (WB) ([11]; 20 h incubation with 50, 100 and 200 nM RAD001, A431/CCKBR): inhibited S6 phosphorylation; internalization ratio [RAD001/control] (AR42J cells [12]): 1.7; [177Lu]Lu-PP-F11N internalization in treated cells (AR42J cells [12]; 100 nM RAD001): 10%; [177Lu]Lu-PP-F11N uptake in tumors of matching sizes ([13]; tumors ranging from 50-150 or 50-180 mg): statistically significant increase; total protein level compared to control (A431 cells): 79%
O=C(O)c1ccc2nc(-c3ccccc3)c(-c3ccccc3)nc2c1 [BML-257] | 1.26 | 0.95 | 0.98 |  |  |  |  |  |  |  |  |  |  |  |  |  | 
CN(C)C(=N)N=C(N)N [Metformin, metformin] |  |  |  | no effects | no effects | no effects | no effects | 1.3 | 21.1 | did not cause a significant change | No significant difference | did not show a significant difference | did not cause a significant change | lack of mTORC1-regulated phosphorylation | only moderately and did not reach statistical significance | 80 | 
